# According to patent publication US5622839A (ZymoGenetics, Inc., priority 1995, dated 1997):
# Biological target: T1, human calcitonin receptor (Homo sapiens, UniProt P30988)
# T1 construct: Hollex encoded a protein of 474 amino acids; expressed in transfected cells; host or cells: BHK 570 / BHK/KZ10-20-48 (baby hamster kidney) stably transfected with pHollex
# T1 sequence (P30988 25-474): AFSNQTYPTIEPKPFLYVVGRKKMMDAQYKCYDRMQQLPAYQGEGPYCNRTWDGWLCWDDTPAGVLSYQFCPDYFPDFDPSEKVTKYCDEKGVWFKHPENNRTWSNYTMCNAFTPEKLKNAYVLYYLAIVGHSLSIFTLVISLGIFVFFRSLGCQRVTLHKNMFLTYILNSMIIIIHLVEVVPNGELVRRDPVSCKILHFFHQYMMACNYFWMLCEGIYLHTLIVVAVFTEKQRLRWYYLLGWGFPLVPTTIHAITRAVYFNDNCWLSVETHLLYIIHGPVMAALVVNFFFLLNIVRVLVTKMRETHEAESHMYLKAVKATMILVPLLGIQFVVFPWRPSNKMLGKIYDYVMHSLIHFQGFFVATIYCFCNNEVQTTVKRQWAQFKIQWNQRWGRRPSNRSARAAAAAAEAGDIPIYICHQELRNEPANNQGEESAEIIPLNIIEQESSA
# Experiment: CRE-luciferase induction in BHK/KZ10-20-48 cells transfected with pHollex (Hollex1, Hollex2)
# Format: cell-based
# Conditions: Hollex1 and Hollex2 clones; 4 h at 37° C.; FIG. 3 and FIG. 4
# Method: This cell line permits the measurement of luciferase activity, adenylate cyclase activity and intracellular calcium concentrations in response to calcitonin binding to its receptor.
# Plasmid KZ10 was transfected into BHK570 cells (available from ATCC as Accession no. CRL 10314) using the calcium phosphate precipitation method essentially as described by Graham and Van de Eb (Virol. 52: 456, 1973, which is incorporated by reference herein). The transfected cells were grown in growth medium (Dulbecco's modified Eagle's medium (DMEM) containing 10% fetal calf serum and 2.0 mm L-glutamine). After a few days in nonselective growth medium, the growth medium was replaced with methotrexate (MTX) selection medium (growth medium containing 250 nM MTX). The cells were then allowed to grow to confluency after which they were trypsinized and plated at limiting dilution into the wells of 96-well plates. […]
# Induction was initiated by removing old medium from the wells and adding 100 μl of fresh growth medium and 100 μl of each 2× solution in triplicate sample wells. Uninduced levels were determined in triplicate wells to which 100 μl of DMEM containing 10% fetal calf serum was added. […]
# Following induction, the medium was removed, and the wells were washed once with 200 μl/well PBS. […] The fold induction of luciferase for each agonist was calculated as follows: […]
substance,measurement,value
salmon calcitonin,fold induction of luciferase,5-10 fold
